Measurements published in EP0726263A2, “Herbicidal (1,3,4)oxadiazoles and thiadiazoles” (American Cyanamid Company, priority 1995, dated 1996).

Key:
Type in all cases: in vivo
Glycine max [1] = assay: Herbicidal activity, preemergence test; conditions: pre; sprayed onto soil, 800 g of active material per hectare; evaluated 3 weeks after treatment
Method in brief: (§1)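 Acetone/TRITON X-155 formulation diluted in water, sprayed onto horticultural loam soon after sowing at 800 g active material per hectare in 900 litres per hectare. Visual 0-9 rating of stand, vigor, malformation, size and chlorosis versus untreated sown soil, scored 3 weeks after treatment.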

Lamium purpureum [2] = assay: Herbicidal activity, preemergence test; conditions: pre; sprayed onto soil, 800 g of active material per hectare; evaluated 3 weeks after treatment
Method in brief: as §1

Gossypium hirsutum [3] = assay: Herbicidal activity, preemergence test; conditions: pre; sprayed onto soil, 800 g of active material per hectare; evaluated 3 weeks after treatment
Method in brief: as §1

Triticum aestivum [4] = assay: Herbicidal activity, preemergence test; conditions: pre; sprayed onto soil, 800 g of active material per hectare; evaluated 3 weeks after treatment
Method in brief: as §1

Amaranthus retroflexus [5] = assay: Herbicidal activity, preemergence test; conditions: pre; sprayed onto soil, 800 g of active material per hectare; evaluated 3 weeks after treatment
Method in brief: as §1

Hordeum vulgare [6] = assay: Herbicidal activity, preemergence test; conditions: pre; sprayed onto soil, 800 g of active material per hectare; evaluated 3 weeks after treatment
Method in brief: as §1

Papaver rhoeas [7] = assay: Herbicidal activity, preemergence test; conditions: pre; sprayed onto soil, 800 g of active material per hectare; evaluated 3 weeks after treatment
Method in brief: as §1

Abutilon theophrasti [8] = assay: Herbicidal activity, preemergence test; conditions: pre; sprayed onto soil, 800 g of active material per hectare; evaluated 3 weeks after treatment
Method in brief: as §1

Ambrosia artemisifolia [9] = assay: Herbicidal activity, preemergence test; conditions: pre; sprayed onto soil, 800 g of active material per hectare; evaluated 3 weeks after treatment
Method in brief: as §1

Ipomoea hederacea [10] = assay: Herbicidal activity, preemergence test; conditions: pre; sprayed onto soil, 800 g of active material per hectare; evaluated 3 weeks after treatment
Method in brief: as §1

Veronica persica [11] = assay: Herbicidal activity, preemergence test; conditions: pre; sprayed onto soil, 800 g of active material per hectare; evaluated 3 weeks after treatment
Method in brief: as §1

Stellaria media [12] = assay: Herbicidal activity, preemergence test; conditions: pre; sprayed onto soil, 800 g of active material per hectare; evaluated 3 weeks after treatment
Method in brief: as §1

Zea mays [13] = assay: Herbicidal activity, preemergence test; conditions: pre; sprayed onto soil, 800 g of active material per hectare; evaluated 3 weeks after treatment
Method in brief: as §1

Chenopodium album [14] = assay: Herbicidal activity, preemergence test; conditions: pre; sprayed onto soil, 800 g of active material per hectare; evaluated 3 weeks after treatment
Method in brief: as §1

Galium aparine [15] = assay: Herbicidal activity, preemergence test; conditions: pre; sprayed onto soil, 800 g of active material per hectare; evaluated 3 weeks after treatment
Method in brief: as §1

Setaria viridis [16] = assay: Herbicidal activity, preemergence test; conditions: pre; sprayed onto soil, 800 g of active material per hectare; evaluated 3 weeks after treatment
Method in brief: as §1

Alopecurus myosuroides [17] = assay: Herbicidal activity, preemergence test; conditions: pre; sprayed onto soil, 800 g of active material per hectare; evaluated 3 weeks after treatment
Method in brief: as §1

Matricaria inodora [18] = assay: Herbicidal activity, preemergence test; conditions: pre; sprayed onto soil, 800 g of active material per hectare; evaluated 3 weeks after treatment
Method in brief: as §1

Glycine max [19] = assay: Herbicidal activity, postemergence test; conditions: post; sprayed onto seedling plants, 800 g of active material per hectare; evaluated 2 weeks after treatment
Method in brief: (§2)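 Spray dose 800 g a.i./ha in 900 L/ha; acetone stock with 0.4% Triton X-155, water-diluted. Pre: sown loam soil, read at 3 wk. Post: seedling plants, read at 2 wk. Visual 0-9 rating vs untreated.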

Lamium purpureum [20] = assay: Herbicidal activity, postemergence test; conditions: post; sprayed onto seedling plants, 800 g of active material per hectare; evaluated 2 weeks after treatment
Method in brief: as §2

Gossypium hirsutum [21] = assay: Herbicidal activity, postemergence test; conditions: post; sprayed onto seedling plants, 800 g of active material per hectare; evaluated 2 weeks after treatment
Method in brief: as §2

Triticum aestivum [22] = assay: Herbicidal activity, postemergence test; conditions: post; sprayed onto seedling plants, 800 g of active material per hectare; evaluated 2 weeks after treatment
Method in brief: as §2

Amaranthus retroflexus [23] = assay: Herbicidal activity, postemergence test; conditions: post; sprayed onto seedling plants, 800 g of active material per hectare; evaluated 2 weeks after treatment
Method in brief: as §2

Hordeum vulgare [24] = assay: Herbicidal activity, postemergence test; conditions: post; sprayed onto seedling plants, 800 g of active material per hectare; evaluated 2 weeks after treatment
Method in brief: as §2

Papaver rhoeas [25] = assay: Herbicidal activity, postemergence test; conditions: post; sprayed onto seedling plants, 800 g of active material per hectare; evaluated 2 weeks after treatment
Method in brief: as §2

Abutilon theophrasti [26] = assay: Herbicidal activity, postemergence test; conditions: post; sprayed onto seedling plants, 800 g of active material per hectare; evaluated 2 weeks after treatment
Method in brief: as §2

Ambrosia artemisifolia [27] = assay: Herbicidal activity, postemergence test; conditions: post; sprayed onto seedling plants, 800 g of active material per hectare; evaluated 2 weeks after treatment
Method in brief: as §2

Ipomoea hederacea [28] = assay: Herbicidal activity, postemergence test; conditions: post; sprayed onto seedling plants, 800 g of active material per hectare; evaluated 2 weeks after treatment
Method in brief: as §2

Veronica persica [29] = assay: Herbicidal activity, postemergence test; conditions: post; sprayed onto seedling plants, 800 g of active material per hectare; evaluated 2 weeks after treatment
Method in brief: as §2

Stellaria media [30] = assay: Herbicidal activity, postemergence test; conditions: post; sprayed onto seedling plants, 800 g of active material per hectare; evaluated 2 weeks after treatment
Method in brief: as §2

Zea mays [31] = assay: Herbicidal activity, postemergence test; conditions: post; sprayed onto seedling plants, 800 g of active material per hectare; evaluated 2 weeks after treatment
Method in brief: as §2

Chenopodium album [32] = assay: Herbicidal activity, postemergence test; conditions: post; sprayed onto seedling plants, 800 g of active material per hectare; evaluated 2 weeks after treatment
Method in brief: as §2

Galium aparine [33] = assay: Herbicidal activity, postemergence test; conditions: post; sprayed onto seedling plants, 800 g of active material per hectare; evaluated 2 weeks after treatment
Method in brief: as §2

Setaria viridis [34] = assay: Herbicidal activity, postemergence test; conditions: post; sprayed onto seedling plants, 800 g of active material per hectare; evaluated 2 weeks after treatment
Method in brief: as §2

Alopecurus myosuroides [35] = assay: Herbicidal activity, postemergence test; conditions: post; sprayed onto seedling plants, 800 g of active material per hectare; evaluated 2 weeks after treatment
Method in brief: as §2

Matricaria inodora [36] = assay: Herbicidal activity, postemergence test; conditions: post; sprayed onto seedling plants, 800 g of active material per hectare; evaluated 2 weeks after treatment
Method in brief: as §2

SMILES	GLXMA control rating (0-9) (Glycine max [1])	LAMPU control rating (0-9) (Lamium purpureum [2])	GOSHI control rating (0-9) (Gossypium hirsutum [3])	TRZAW control rating (0-9) (Triticum aestivum [4])	AMARE control rating (0-9) (Amaranthus retroflexus [5])	HORVW control rating (0-9) (Hordeum vulgare [6])	PAPRH control rating (0-9) (Papaver rhoeas [7])	ABUTH control rating (0-9) (Abutilon theophrasti [8])	AMBEL control rating (0-9) (Ambrosia artemisifolia [9])	IPOHE control rating (0-9) (Ipomoea hederacea [10])	VERPE control rating (0-9) (Veronica persica [11])	STEME control rating (0-9) (Stellaria media [12])	ZEAMX control rating (0-9) (Zea mays [13])	CHEAL control rating (0-9) (Chenopodium album [14])	GALAP control rating (0-9) (Galium aparine [15])	SETVI control rating (0-9) (Setaria viridis [16])	ALOMY control rating (0-9) (Alopecurus myosuroides [17])	MATIN control rating (0-9) (Matricaria inodora [18])	GLXMA control rating (0-9) (Glycine max [19])	LAMPU control rating (0-9) (Lamium purpureum [20])	further results
C[C@H](NC(=O)c1nnc(-c2ccccc2Cl)o1)c1ccccc1 [Example 21]	0 (no effect)	5 (definite injury)	0 (no effect)	0 (no effect)	3 (moderate effect)	0 (no effect)	9 (complete kill)	0 (no effect)	0 (no effect)	1 (trace effect)	9 (complete kill)	5 (definite injury)	0 (no effect)	2 (slight effect)	0 (no effect)	1 (trace effect)	0 (no effect)	6 (herbicidal effect)	2 (slight effect)	6 (herbicidal effect)	GOSHI control rating (0-9) (Gossypium hirsutum [21]): 8 (approaching complete kill); TRZAW control rating (0-9) (Triticum aestivum [22]): 2 (slight effect); AMARE control rating (0-9) (Amaranthus retroflexus [23]): 8 (approaching complete kill); HORVW control rating (0-9) (Hordeum vulgare [24]): 1 (trace effect); PAPRH control rating (0-9) (Papaver rhoeas [25]): 5 (definite injury); ABUTH control rating (0-9) (Abutilon theophrasti [26]): 5 (definite injury); AMBEL control rating (0-9) (Ambrosia artemisifolia [27]): 6 (herbicidal effect); IPOHE control rating (0-9) (Ipomoea hederacea [28]): 4 (injury); VERPE control rating (0-9) (Veronica persica [29]): 7 (good herbicidal effect); STEME control rating (0-9) (Stellaria media [30]): 9 (complete kill); ZEAMX control rating (0-9) (Zea mays [31]): 2 (slight effect); CHEAL control rating (0-9) (Chenopodium album [32]): 7 (good herbicidal effect); GALAP control rating (0-9) (Galium aparine [33]): 4 (injury); SETVI control rating (0-9) (Setaria viridis [34]): 6 (herbicidal effect); ALOMY control rating (0-9) (Alopecurus myosuroides [35]): 0 (no effect); MATIN control rating (0-9) (Matricaria inodora [36]): 4 (injury)
C[C@H](NC(=O)c1nnc(-c2ccc(C(F)(F)F)cc2)o1)c1ccccc1 [Example 23]	0 (no effect)	7 (good herbicidal effect)	0 (no effect)	0 (no effect)	9 (complete kill)	0 (no effect)	9 (complete kill)	5 (definite injury)	0 (no effect)	0 (no effect)	9 (complete kill)	8 (approaching complete kill)	1 (trace effect)	8 (approaching complete kill)	0 (no effect)	8 (approaching complete kill)	4 (injury)	8 (approaching complete kill)	5 (definite injury)	9 (complete kill)	GOSHI control rating (0-9) (Gossypium hirsutum [21]): 9 (complete kill); TRZAW control rating (0-9) (Triticum aestivum [22]): 3 (moderate effect); AMARE control rating (0-9) (Amaranthus retroflexus [23]): 9 (complete kill); HORVW control rating (0-9) (Hordeum vulgare [24]): 4 (injury); PAPRH control rating (0-9) (Papaver rhoeas [25]): 8 (approaching complete kill); ABUTH control rating (0-9) (Abutilon theophrasti [26]): 9 (complete kill); AMBEL control rating (0-9) (Ambrosia artemisifolia [27]): 8 (approaching complete kill); IPOHE control rating (0-9) (Ipomoea hederacea [28]): 8 (approaching complete kill); VERPE control rating (0-9) (Veronica persica [29]): 9 (complete kill); STEME control rating (0-9) (Stellaria media [30]): 9 (complete kill); ZEAMX control rating (0-9) (Zea mays [31]): 3 (moderate effect); CHEAL control rating (0-9) (Chenopodium album [32]): 9 (complete kill); GALAP control rating (0-9) (Galium aparine [33]): 7 (good herbicidal effect); SETVI control rating (0-9) (Setaria viridis [34]): 9 (complete kill); ALOMY control rating (0-9) (Alopecurus myosuroides [35]): 3 (moderate effect); MATIN control rating (0-9) (Matricaria inodora [36]): 8 (approaching complete kill)
C[C@H](NC(=O)c1nnc(-c2c(F)cccc2F)o1)c1ccccc1 [Example 24]	0 (no effect)	7 (good herbicidal effect)	0 (no effect)	0 (no effect)	9 (complete kill)	0 (no effect)	9 (complete kill)	7 (good herbicidal effect)	3 (moderate effect)	2 (slight effect)	9 (complete kill)	8 (approaching complete kill)	0 (no effect)	8 (approaching complete kill)	0 (no effect)	8 (approaching complete kill)	2 (slight effect)	9 (complete kill)	4 (injury)	8 (approaching complete kill)	GOSHI control rating (0-9) (Gossypium hirsutum [21]): 8 (approaching complete kill); TRZAW control rating (0-9) (Triticum aestivum [22]): 3 (moderate effect); AMARE control rating (0-9) (Amaranthus retroflexus [23]): 9 (complete kill); HORVW control rating (0-9) (Hordeum vulgare [24]): 2 (slight effect); PAPRH control rating (0-9) (Papaver rhoeas [25]): 6 (herbicidal effect); ABUTH control rating (0-9) (Abutilon theophrasti [26]): 9 (complete kill); AMBEL control rating (0-9) (Ambrosia artemisifolia [27]): 8 (approaching complete kill); IPOHE control rating (0-9) (Ipomoea hederacea [28]): 5 (definite injury); VERPE control rating (0-9) (Veronica persica [29]): 9 (complete kill); STEME control rating (0-9) (Stellaria media [30]): 8 (approaching complete kill); ZEAMX control rating (0-9) (Zea mays [31]): 2 (slight effect); CHEAL control rating (0-9) (Chenopodium album [32]): 9 (complete kill); GALAP control rating (0-9) (Galium aparine [33]): 5 (definite injury); SETVI control rating (0-9) (Setaria viridis [34]): 6 (herbicidal effect); ALOMY control rating (0-9) (Alopecurus myosuroides [35]): 2 (slight effect); MATIN control rating (0-9) (Matricaria inodora [36]): 4 (injury)
